Experimental data published in patent US10054582B2, “Compositions and methods for inhibiting HMGB1 activation of melanocytes” (The Procter & Gamble Company, priority 2014, dated 2018).
Entries after “also recorded” stand apart in the source; their conditions may differ.

Assays:
HMGB1 = HMGB1 quantitation from keratinocytes (ELISA, normalized to total protein); format: cell-based; conditions: for change in HMGB1 level relative to the control (in words): keratinocytes contacted with test agent at different concentrations; for HMGB1 (pg)/protein (ug): keratinocytes, vehicle control 54
Method: Make a 210 mL suspension of keratinocytes at 40,000 cells/mL using suitable media to make a cell suspension. Place 2 mL of the cell suspension into the appropriate number of wells of one or more 12-well plates as needed, using the same velocity and insertion angle for each well as cells are pipetted. Incubate the 12-well plates overnight at 37° C. If the cell plating quality is poor (e.g., cells are not attached to plate or seeding density is uneven), discard and start over. Prepare a dosing media by diluting the test agent to the desired concentration (e.g., from 0.0001% to 10%) in a suitable media (e.g., the same media used to make the cell suspension). […] It is not uncommon for skin care actives to be included in skin care compositions at these levels. Optionally, include sufficient solublizer to provide 0.1% solublizer in the test sample. Add 2 mL of dosing media into each well of a 12-well plate and incubate at 4° C. overnight or until test agent is to be added to the test sample. Place prepared dosing media in the 37° C. incubator for at least 30 minutes, or until pH has equalized. When dosing media is warmed and at proper pH, dose the cells. Incubate the dosed cells at 37° C. for 6 hours. Keratinocytes (or other cells) are plated out in 12 well plates as described above with a seeding density of about 200,000 cells/well and incubated overnight at 37° C. with 5% CO2. The keratinocytes are dosed with a dosing medium containing the test agent and the plates returned to the incubator for another 20 hours. The supernatant for each is collected and the HMGB1 level analyzed using ELISA (USCN Life Sciences) in accordance with manufacturer's instructions. The cells are lysed with Glo Lysis Buffer (Promega) and the protein levels determined using a PIERCE brand bicinchoninic acid protein assay kit per manufacturer's instructions. The values of HMGB1 determined by ELISA and normalized to total protein levels from the cells.

[1] = test system: primary human melanocytes; assay: Melanocyte dendricity and size measurements (Incucyte ZOOM live cell imaging); format: cell-based
Source text: The ability of a test agent to inhibit dendricity and cell body growth in melanocytes may be determined by contacting a sample of melanocytes with the test agent, measuring the change in dendricity and/or cell body growth and comparing the measured indicator to a control to determine if the test agent is identified as a skin tone agent. In some instances, it is important for the test sample to include a source of HMGB1. For example, an amount of HMGB1 (e.g., recombinant HIS-tagged HMGB1 available from Sigma) may be included in the test sample (e.g., at a final level of 0.1 μg/mL), or the test sample may include another type of cell, which can be stimulated to produce HMGB1. A control may be obtained by measuring the dendricity and/or cell body size of the melanocytes prior to contact with the test agent, measuring the dendricity and/or cell body size of the melanocytes in a control sample and/or from the dendricity and/or cell body size of melanocytes published in scientific literature, if available.
Primary human melanocytes (ATCC) are cultured for 2 passages in T150 flasks. For dendricity experiments, melanocytes are plated into 96 well plates (clear) at a density of about 5000 cells/well. The plates are placed into an Incucyte ZOOM® live cell imaging system (Essen Bioscience, Ann Arbor, Mich.) which resides inside a 37° C., 5% CO2 incubator. 20× images are collected every hour using the phase mode. The Neurite Outgrowth Software Package (Essen) is used to measure cell body size, dendrite length, and cell numbers.

[2] = melanocytes contacted with HMGB1 vs control / before treatment, span of three days

Molecule: hydroxycinnamic acid [HCA]
- change in HMGB1 level relative to the control (in words) (HMGB1): significantly reduced HMGB1 levels relative to the control
- HMGB1 (pg)/protein (ug) (HMGB1; test agent at 0.001%): 29 pg/µg
- HMGB1 (pg)/protein (ug) (HMGB1; test agent at 0.005%): 6 pg/µg
- HMGB1 (pg)/protein (ug) (HMGB1; test agent at 0.02%): 2 pg/µg

Molecule: methyl hydroxycinnamic acid [ME-HCA]
- change in HMGB1 level relative to the control (in words) (HMGB1): significantly reduced HMGB1 levels relative to the control
- HMGB1 (pg)/protein (ug) (HMGB1; test agent at 0.001%): 33 pg/µg
- HMGB1 (pg)/protein (ug) (HMGB1; test agent at 0.005%): 28 pg/µg
- HMGB1 (pg)/protein (ug) (HMGB1; test agent at 0.02%): 4 pg/µg

B1: HMGB1: high-mobility group protein B1, SEQ ID NO: 1; recombinant HIS-tagged HMGB1 available from Sigma (protein, listed as Homo sapiens)
chain: MGKGDPKKPRGKMSSYAFFVQTCREEHKKKHPDASVNFSEFSKKCSERWKTMSAKEKGKFEDMAKADKARYEREMKTYIPPKGETKKKFKDPNAPKRPPSAFFLFCSEYRPKIKGEHPGLSIGDVAKKLGEMWNNTAADDKQPYEKKAAKLKEKYEKDIAAYRAKGKPDAAKKGVVKAEKSKKKKEEEEDEEDEEDEEEEEDEEDEDEEEDDDDE
modifications: His tag
notes: recombinant HIS-tagged HMGB1 available from Sigma
- cell body size of melanocytes [1, 2]: significantly larger cell body size relative to the control; also recorded: increased dendricity and cell body size
- dendricity (dendrite length) of melanocytes [1, 2]: significantly longer dendrites relative to the control; also recorded: increased dendricity
- melanocyte proliferation ([1]; primary human melanocytes contacted with HMGB1): without enhancing melanocyte proliferation
